Columns and labels:
hPPARα = target: T1, hPPARα (Homo sapiens, UniProt Q07869); test: Gal4-hPPARα chimera transactivation in COS-7 cells (luciferase); assay type: cell-based; settings: induction factor standardised to an internal reference, read-out: % hGal4-PPAR transactivation (10 μM) alpha
T1 construct: fragments of DNA amplified by PCR corresponding to the DEF domains of the human PPARα, PPARγ PPARδ nuclear receptors; expressed in transfected cells; host or cells: COS-7 (monkey kidney fibroblast line)
T1 sequence (Q07869 239-466 limits assumed): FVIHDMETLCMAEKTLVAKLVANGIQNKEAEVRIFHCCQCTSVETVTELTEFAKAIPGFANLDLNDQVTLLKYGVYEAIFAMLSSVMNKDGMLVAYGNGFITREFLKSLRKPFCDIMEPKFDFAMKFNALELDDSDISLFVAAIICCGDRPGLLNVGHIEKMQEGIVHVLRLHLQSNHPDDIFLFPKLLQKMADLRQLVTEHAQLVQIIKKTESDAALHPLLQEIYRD
Method in brief: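 COS-7 cells transiently transfected with Gal4-DBD/human PPAR DEF-domain chimeras plus Gal4(RE)_TkpGL3 luciferase reporter (1/10 ratio), then exposed 24 h serum-free to compound at 10 μM. Luciferase induction factor over control, normalised to an internal reference per isoform, expressed as percent activation.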

Male Sprague-Dawley rats = test: Glycemia and insulinemia after oral administration in fasted rats; assay type: in vivo, rat; settings: oral, fasted rat
Source text: In normal animals (as in man), the consequence of the administration of insulinotropic compounds is a significant increase in the plasmatic level of insulin. This induced hyperinsulinemia induces a reduction in glycemia. This example studies the evolution of glycemia and of insulinemia following oral administration of the inventive compounds in rats: the insulinotropic action of the compounds in vivo should induce a significant decrease of glycemia.
Male Sprague-Dawley rats (300-320 g) (CERJ—Le Genest St Isle-France) were used in order to carry out this experiment. The rats were fed with a standard diet of granular material; they had free access to food and drink and were kept in individual, ventilated cages in a 12 hr/12 hr light/dark rhythm. The animals were deprived of food for 16 hours prior to the experiment.
The compound was suspended in an aqueous carboxymethylcellulose solution (Sigma C4888) at 1% containing 0.1% Tween80 (Sigma P8074). The animals of the control group received the vehicle alone. The treated animals received a single administration of the compound (the suspension was administered by gavage at the rate of 10 ml/kg). Each group was made up of 11 animals. A 1st blood sample was taken by puncturing the retro-orbital sinus of the animals under volatile isoflurane anaesthesia: this sample makes up the initial time of the experiment. The substance or the vehicle were immediately administered to the animals by gavage, and blood samples were taken over time.
The animals' glycemia was measured in real time using a glucometer (Glucotrend2-Roche Diagnostic-France). The insulinemias were measured using an ELISA kit (Insulin Elisa Kit—Crystal Chem. USA). The method used was of the ELISA type: plasmatic insulin was specifically bound to anti-insulin monoclonal antibodies immobilised on the microtitration plate; simultaneously, an anti-insulin polyclonal guinea pig antibody was added to the reaction. The revelation of the reaction was guaranteed by an antibody coupled to peroxidase. These antibodies bind specifically to the guinea pig's immunoglobulins. The production of oxidised chromogen causes an increase in absorbance in proportion to the quantity of insulin present in the sample.

[1] = system: Male Dunkin Hartley guinea pigs; test: Lipid-lowering effect in guinea pigs on a cholesterol and fat enriched diet; assay type: in vivo, guinea pig; settings: 200 mpk for 14 days; high fat diet
Experimental: The lipid-lowering effect of the inventive compounds was evaluated in vivo in Hartley guinea pigs. In guinea pigs, as in man, a diet enriched in cholesterol and fatty acids induces an increase in the plasmatic levels of lipids. Plasmatic lipid levels (cholesterol and triglycerides) after 14 days treatment were measured and compared to the levels observed for non-treated animals (controls).
Male Dunkin Hartley guinea pigs (Harlan, Gannat, France) aged 5-6 weeks at the start of the experiment were put in groups of 6 animals selected such that the distribution of their body weight and of their plasmatic lipid levels determined before the experiment were uniform. The guinea pigs were given a diet containing 0.2% cholesterol and 14% fats (Research Diets Inc.-USA). They were kept in a 12 hour/12 hour light/dark cycle at a constant temperature of 20±3° C. and had free access to water and food. The amount of food eaten and the increase in weight were recorded. The compounds tested were suspended in an aqueous carboxymethylcellulose solution (Sigma C4888) at 1% containing 0.1% Tween80 (Sigma P8074) and administered daily by intragastric gavage for 14 days at a dose of 200 mg/kg/day. […]
The plasmatic concentrations of the lipids (total cholesterol and triglycerides) were measured by enzymatic titrations (bioMérieux-Lyon-France) according to the supplier's recommendations.

activation at 10 µM (hPPARα): 42%
Structure (SMILES): CCCCC(NC(=O)Cc1ccc(OC(C)(C)C(=O)NS(C)(=O)=O)cc1)c1ccccc1N1CCCCC1 (centres unmarked) [Compound 52, N-[methylsulfonyl]-2-[4-[1-(1-(2-(1-piperidinyl)phenyl)pentyl)aminocarbonylmethyl]phenoxy]-2-methylpropanamide]
decrease in glycemia between T=0 and T=120 min (Male Sprague-Dawley rats; 50 mpk): no measurable effect
decrease in glycemia between T=0 and T=120 min (Male Sprague-Dawley rats; 500 mpk): 19%
Cholesterol plasmatic levels, lower than controls [1]: approximately 45%
Triglycerides plasmatic levels, lower than controls [1]: approximately 22%
